{"source": "patent US20100113291A1", "about": "(CENTRE NATIONAL DE LA RECHERCHE SCIENTIFIQUE, priority 2006, published 2010)", "biological_target": "T1, MabA-wt (Mycobacterium tuberculosis, UniProt P9WGT3)", "T1 construct": "made in house; host or cells: Escherichia coli", "T1 sequence (P9WGT3 whole entry)": "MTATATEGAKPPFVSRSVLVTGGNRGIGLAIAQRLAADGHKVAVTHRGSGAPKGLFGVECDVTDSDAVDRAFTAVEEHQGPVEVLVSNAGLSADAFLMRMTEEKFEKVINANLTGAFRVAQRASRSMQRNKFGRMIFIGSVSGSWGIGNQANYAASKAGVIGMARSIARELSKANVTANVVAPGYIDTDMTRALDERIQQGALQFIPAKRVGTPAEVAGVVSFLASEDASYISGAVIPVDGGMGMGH", "format": "binding", "conditions": "spectrofluorimetry; read-out: KD for the cofactor", "data": [{"smiles": "NC(=O)C1=CN([C@@H]2O[C@H](COP(=O)(O)OP(=O)(O)OC[C@H]3O[C@@H](n4cnc5c(N)ncnc54)[C@H](OP(=O)(O)O)[C@@H]3O)[C@@H](O)[C@H]2O)C=CC1", "note": "[NADPH]", "values": [{"measurement": "Kd", "value": 8.7, "unit": "µM"}]}]}
